Reference: patent publication US8916557B2, “Substituted 4-Aryl-N-phenyl-1,3,5-triazin-2-amines” (Bayer Intellectual Property GmbH, priority 2011, dated 2014)

Key:
Assay type in all cases: cell-based
[1] = test system: HeLa human cervical tumour cells; experiment: Proliferation assay (crystal violet), HeLa; settings: read-out: Inhibition of HeLa cell proliferation
[2] = test system: HeLa-MaTu-ADR, multidrug-resistant human cervical carcinoma cells; experiment: Proliferation assay (crystal violet), HeLa-MaTu-ADR; settings: read-out: Inhibition of HeLa/MaTu/ADR cell proliferation
Protocol: (§1) Cultivated tumour cells (NCI-H460, human non-small cell lung carcinoma cells, ATCC HTB-177; DU 145, hormone-independent human prostate carcinoma cells, ATCC HTB-81; HeLa-MaTu, human cervical carcinoma cells, EPO-GmbH, Berlin; HeLa-MaTu-ADR, multidrug-resistant human cervical carcinoma cells, EPO-GmbH, Berlin; HeLa human cervical tumour cells, ATCC CCL-2; Caco-2 human colorectal carcinoma, ATCC HTB-37; B16F10 mouse melanoma cells, ATCC CRL-6475) were plated at a density of 5000 cells/well (DU145, HeLa-MaTu-ADR), 3000 cells/well (NCI-H460, HeLa-MaTu, HeLa), 1500 cells/well (Caco-2), or 1000 cells/well (B16F10) in a 96-well multititer plate in 200 μL of their respective growth medium supplemented 10% fetal calf serum. After 24 hours, the cells of one plate (zero-point plate) were stained with crystal violet (see below), while the medium of the other plates was replaced by fresh culture medium (200 μl), to which the test substances were added in various concentrations (0 μM, as well as in the range of 0.001-10 μM; the final concentration of the solvent dimethyl sulfoxide was 0.5%). The cells were incubated for 4 days in the presence of test substances. Cell proliferation was determined by staining the cells with crystal violet: the cells were fixed by adding 20 μl/measuring point of an 11% glutaric aldehyde solution for 15 minutes at room temperature. After three washing cycles of the fixed cells with water, the plates were dried at room temperature. The cells were stained by adding 100 μl/measuring point of a 0.1% crystal violet solution (pH 3.0). After three washing cycles of the stained cells with water, the plates were dried at room temperature. The dye was dissolved by adding 100 μl/measuring point of a 10% acetic acid solution. The extinction was determined by photometry at a wavelength of 595 nm. The change of cell number, in percent, was calculated by normalization of the measured values to the extinction values of the zero-point plate (=0%) and the extinction of the untreated (0 μm) cells (=100%). The IC50 values were determined by means of a 4 parameter fit.

[3] = test system: B16F10 mouse melanoma cells; experiment: Proliferation assay (crystal violet), B16F10; settings: B16-F10, read-out: Inhibition of B16F10 cell proliferation
Protocol: as §1

[4] = test system: Caco-2 human colorectal carcinoma; experiment: Proliferation assay (crystal violet), Caco-2; settings: CACO-2 cells, read-out: Inhibition of CACO-2 cell proliferation
[5] = test system: NCI-H460, human non-small cell lung carcinoma cells; experiment: Proliferation assay (crystal violet), NCI-H460; settings: read-out: Inhibition of H460 cell proliferation (activity range)
Protocol: as §1

IC50 [1]: 0.11 µM | IC50 [2]: 0.33 µM | IC50 [3]: 0.32 µM | IC50 [4]: 0.31 µM | IC50 [5]: 0.06 µM
SMILES: CS(=O)(=O)Cc1cccc(Nc2ncnc(-c3ccc(F)cc3OCc3ccc(C#N)cc3)n2)c1 [Example 90, 4-({5-Fluoro-2-[4-({3-[(methylsulfonyl)methyl]phenyl}amino)-1,3,5-triazin-2-yl]phenoxy}methyl)-benzonitrile]
